Where “and” joins values, the source holds several entries; their conditions need not be identical. Equal values may be shown once. Read-outs that look alike come from different tables or passages of the source.
What was measured:
influenza B polymerase = assay: Fluorescence anisotropy/polarization protein-RNA binding; parameters: species or system influenza B/Memphis/13/03; details: for dissociation constant, polymerase + RNA (in words): each RNA separately
Protocol: Fluorescence spectroscopy was used to quantify protein–RNA interactions, employing either a plate reader or cuvette format. Using the cuvette, protein was successively added to FAM-Ex-5-labelled RNA (if not indicated otherwise) in binding buffer (50 mM HEPES/NaOH, 0.15 M NaCl, 10% (v/v) glycerol, 2 mM Tris(2-carboxyethyl)phosphine (TCEP), pH 7.4) at the concentrations indicated. After attaining equilibrium, total fluorescence intensity and fluorescence anisotropy were measured at T = 24°C with a fluorescence spectrometer (Photon Technology International) equipped with polarizers with excitation and emission wavelengths set to 495 and 515 nm, respectively. Total fluorescence intensity was corrected for the volume change due to addition of protein and the observed fluorescence anisotropy corrected for the change in fluorescence intensity according to Equation (1) ([17]): (1) where fb represents the fractional concentration of bound RNA, r the observed anisotropy, rf and rb the anisotropy of free and bound RNA, and If and Ib the fluorescence intensity of free and bound RNA, respectively. Using KaleidaGraph (Synergy Software), dissociation constants were derived by fitting the binding isotherms to a 1:1 binding model of RNA and protein according to Equation (2) (2) where fb represents the fractional concentration of bound RNA, L the total concentration of labelled RNA, P the concentration of protein and KD the dissociation constant.

[1] = molecular target: influenza B polymerase initiating RNA synthesis at the cRNA promoter (cPol) (Influenza B virus, UniProt Q5V8Y6); assay: biochemical; format: biochemical, influenza B/Memphis/13/03
[2] = molecular target: T1, influenza B polymerase initiating RNA synthesis at the vRNA promoter (vPol) (Influenza B virus, UniProt Q5V8X3+Q5V8Y6); details: read-out: KM of primer, vPol, 0.5 mM NTPs, 0.15 μM template v3΄ 1–18, 0.25 μM polymerase, T = 24°C
Cy3-labelled v3΄ nt 1–18 = assay: FRET assay of RNA-RNA interaction with v3΄ nt 1–18; format: binding; details: FAM-labelled 5΄ RNA, T = 25°C
Protocol: (§1) RNA–RNA interactions were quantified by a simple FRET-assay. Briefly, ∼0.01 μM short 5΄ RNAs labelled at their 3΄ ends by FAM-Ex-5 were incubated at T = 25°C in 384 well plates (FIA plate black, 128.0/85 mm, medium binding; Greiner Bio-One GmbH, Austria) in binding buffer (50 mM HEPES/NaOH, 0.15 M NaCl, 10% (v/v) glycerol, 2 mM Tris(2-carboxyethyl)phosphine (TCEP), pH 7.4) with 3΄ RNAs labelled at their 5΄ end by Cy3 at the concentrations indicated. After attaining equilibrium (∼0.5 h), the FAM's fluorescence intensity was recorded as averaged technical triplicates (excitation / emission = 485/520 nm; 10 nm band width; CLARIOstar, BMG Labtech, Germany). The decreasing fluorescence intensity with increasing Cy3-labelled 3΄ RNA is plotted relative to its initial value as mean values of at least duplicate experiments with the standard deviation indicated. Mean values were then analysed according to Equation (2) (with P equaling the concentration of Cy3-labelled 3΄ RNA; curve fitting yielded L = 0.007 μM and 0.004 μM for FAM-Ex-5-labelled c5΄ and v5΄ nts 1–18, respectively), yielding the corresponding dissociation constants and error of the fitting routine stated. 0.2 μM FAM-Ex-5-labelled v5΄ nt 1–10 were used to study its weak interaction with either Cy3-labelled v3΄ nt 1–9 or v3΄ nt 1–18.

[3] = molecular target: Cy3-labelled c3΄ RNA (18-mer); assay: FRET assay of RNA-RNA interaction with c3΄ RNA; format: binding; details: FAM-labelled 5΄ RNA, T = 25°C
Protocol: as §1

[4] = molecular target: influenza B polymerase, vPol (c5' hook) (Influenza B virus, UniProt Q5V8Y6); assay: biochemical; parameters: species or system influenza B/Memphis/13/03
[5] = molecular target: T1, influenza B polymerase initiating RNA synthesis at the vRNA promoter (vPol); assay: biochemical; details: IC50 (mM)
influenza polymerase = test system: influenza polymerase; parameters: method as in PMID 8585725; details: in vitro and cell culture experiments; cited from earlier work
[6] = 0.025 mM NTPs, capped RNA primed, T ∼ 21°C, t = 176 or 100 min, read-out: IC50 (mM), cPol
[7] = 0.25 mM NTPs, capped RNA primed, T ∼ 21°C, t = 15 or 10 min, read-out: IC50 (mM), cPol
[8] = 0.025 mM NTPs, capped RNA primed, T ∼ 21°C, t = 5 min, not duplicate, read-out: IC50 (mM), vPol (c5' hook)
[9] = 0.025 mM NTPs, capped RNA primed, T ∼ 21°C, t = 5 min
[10] = 0.25 mM NTPs, capped RNA primed, T ∼ 21°C, t = 5 min

5΄-UAUACCUCUGCUUCUGCU-3΄ (chemistry not given here) [v3', genomic vRNA 3΄ end, 18 nucleotides]
dissociation constant, polymerase + RNA (in words) (influenza B polymerase): low nanomolar range

5΄-m^7GpppAAUCUAUAAUAG-3΄ [capped RNA]
Km ([1]; 0.5 mM NTPs, 0.15 μM template c3΄ 1–18, 0.25 μM polymerase, T = 24°C, read-out: KM (capped RNA), cPol): 0.12 ± 0.03 µM
Km [2]: 0.027 ± 0.01 µM

5΄-pAGUAGUAACAAGAG-3΄ [non-capped RNA]
Km [2]: 1.1 ± 0.2 µM
Km ([2]; listed as v5′ 1-14): ~1 µM

5′-UACCCUCUUGUUACUACU-3′ (chemistry not given here) [c3', anti-genomic cRNA 3΄ end, 18 nucleotides]
dissociation constant, polymerase + RNA (in words) (influenza B polymerase): low nanomolar range

5′-pAGCAGAAGCAGAGGUAUA-3′ [c5']
dissociation constant, polymerase + RNA (in words) (influenza B polymerase): low nanomolar range
Kd (influenza B polymerase; fluorescently labelled RNA, binding buffer pH 7.4, read-out: KD, polymerase + promoter RNA): < 0.01 µM
Kd (Cy3-labelled v3΄ nt 1–18): 30 pM
Kd (Cy3-labelled v3΄ nt 1–18; listed as c5΄): ~30 pM
Kd [3]: 0.0016 ± 0.0003 µM
Kd ([3]; listed as c5΄): ~0.0016 µM

Nc1ncnc2c1ncn2[C@@H]1O[C@H](COP(=O)(O)OP(=O)(O)OP(=O)(O)O)[C@@H](O)[C@H]1F [2'F-2'dATP]
IC50 [1, 6]: 0.7 mM
IC50 [1, 7]: 0.38 mM
IC50 [4, 8]: 0.03 mM
IC50 [5, 9]: 0.03 mM
IC50 [5, 10]: 0.3 mM

Nc1ccn([C@@H]2O[C@H](COP(=O)(O)OP(=O)(O)OP(=O)(O)O)[C@@H](O)[C@H]2F)c(=O)n1 [2'F-2'dCTP]
IC50 ([1]; IC50 (mM), cPol): 1.5 mM and 2.1 mM
IC50 [4]: 0.1 mM
IC50 [5]: 0.21 mM and 1.4 mM

Nc1nc2c(ncn2[C@@H]2O[C@H](COP(=O)(O)OP(=O)(O)OP(=O)(O)O)[C@@H](O)[C@H]2F)c(=O)[nH]1 [2'F-2'dGTP]
IC50 [1, 6]: 0.28 mM
IC50 [1, 7]: 0.43 mM
IC50 [4, 8]: 0.01 mM
mode of inhibition of influenza polymerase with respect to GTP (influenza polymerase): reversibly and competitively
IC50 [5, 9]: 0.02 mM
IC50 [5, 10]: 0.2 mM

O=c1ccn([C@@H]2O[C@H](COP(=O)(O)OP(=O)(O)OP(=O)(O)O)[C@@H](O)[C@H]2F)c(=O)[nH]1 [2'F-2'dUTP]
IC50 ([1]; IC50 (mM), cPol): 1.1 mM and 1.8 mM
IC50 [4]: 0.3 mM
IC50 [5]: 0.45 mM and 3.1 mM

Reference: article PMC5399792 (Nucleic Acids Research, 2017)
